PubChem BioAssay (NCI)
“And” between values parts separate entries of the source, which are not always exact repeats. Identical values can stand only once.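 How tested: cells in 96-well plates exposed to compound for 48 hours at five concentrations. GI50 marks 50% less growth. TGI marks complete inhibition of growth.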 *1 amine or outer side, *2 acyl side, *3 side chain or, on linkers, in order; H or OH if unused. Where a SMILES comes first, the peptide text is derived from it. Bridges are numbered along the chain shown (N, C = ends). [ ]: non-standard residue; d: D form. The star is where a group is joined. Phe(3-Me) = Cc1cccc(C[C@H](N)C(=O)O)c1; NH(4-Cl-2-F-phenyl) = Fc1cc(Cl)ccc1N*; Pro(4R-Me) = C[C@H]1CN[C@H](C(=O)O)C1; Propanoyl(3-NMe2) = CN(C)CCC(=O)*; Hyp = O=C(O)[C@@H]1C[C@@H](O)CN1; aThr = C[C@H](O)[C@H](N)C(=O)O; Pip = O=C(O)[C@@H]1CCCCN1; CO = O=C([*:1])[*:2]

Tests used:
Assay in all cases: growth of human tumour cells (NCI), 48 h
MDA-MB-435 = system: MDA-MB-435
K-562 leukemia = system: K-562 leukemia
NCI-H460 lung = system: NCI-H460 lung
NCI-H23 lung = system: NCI-H23 lung
MCF7 breast = system: MCF7 breast
TK-10 renal = system: TK-10 renal
HOP-62 NSCLC = system: HOP-62 NSCLC
HT29 colon = system: HT29 colon
SK-MEL-2 melanoma = system: SK-MEL-2 melanoma
EKVX NSCLC = system: EKVX NSCLC

| SMILES | GI50 (MDA-MB-435) [µM] | TGI (MDA-MB-435) [µM] | GI50 (K-562 leukemia) | TGI (K-562 leukemia) [µM] | GI50 (NCI-H460 lung) [µM] | GI50 (NCI-H23 lung) | TGI (NCI-H23 lung) | GI50 (MCF7 breast) [µM] | GI50 (TK-10 renal) | TGI (TK-10 renal) [µM] | GI50 (HOP-62 NSCLC) | TGI (HOP-62 NSCLC) | GI50 (HT29 colon) [µM] | TGI (HT29 colon) [µM] | GI50 (SK-MEL-2 melanoma) | TGI (SK-MEL-2 melanoma) | GI50 (EKVX NSCLC) [µM] | TGI (EKVX NSCLC) | TGI (NCI-H460 lung) [µM] | TGI (MCF7 breast) [µM] |
| --- | --- | --- | --- | --- | --- | --- | --- | --- | --- | --- | --- | --- | --- | --- | --- | --- | --- | --- | --- | --- |
| O=c1cccc(C#CC#C/C=C/CO)o1 | 1.99 | 4.69 | 4.92 µM | > 100 | 2.88 | 1.73 µM | 3.18 µM | 2.23 | 2.21 µM | 4.66 | 2.08 µM | 4.14 µM | 3.89 | > 100 | 7.52 µM | > 31.3 µM | 2.77 | 6.47 µM |  |  |
| O=[N+]([O-])c1ccc(-c2cn(-c3ccc(Cl)cc3)cn2)cc1 |  | > 100 |  | > 100 |  |  | > 100 µM |  |  | 67.5 |  | 34.6 µM |  | > 100 |  | > 100 µM |  | > 100 µM | > 100 | > 100 |
| COc1cc(NC(N)=NCCC(C)(C)c2ccc(C(F)(F)F)cc2)ncc1C#N | 1.78 | 3.25 | 1.42 µM | 5.02 | 1.83 | 1.53 µM | 3.15 µM | 1.45 | 1.51 µM | 2.88 | 1.78 µM | 3.25 µM | 1.62 | 3.14 | 1.84 µM | 3.38 µM | 1.4 | 2.87 µM | 3.55 | 2.98 |
| COc1cc(C2C(C#N)=C(N)Oc3cc(O)ccc32)cc(OC)c1OC (configuration not stated) | 0.147 | 0.643 | 0.435 µM | > 100 | 0.382 | 0.62 µM | > 100 µM | 0.334 | 8.61 µM | > 100 | 0.746 µM | > 100 µM | 0.39 | 11.8 | 0.496 µM | > 100 µM | 6.49 | > 100 µM | > 75.2 | > 100 |
| CC[C@@]1(O)C(=O)OCc2c1cc1n(c2=O)Cc2c-1nc1ccccc1c2/C=N/OC(C)(C)C | 0.0301 | 3.92 | 0.0189 µM | > 100 | < 0.01 | < 0.01 µM | 0.158 µM | < 0.01 | 0.0787 µM | 3.52 | < 0.01 µM | 0.53 µM | 0.0187 | 0.66 | 0.0447 µM | 1.22 µM | 0.073 | 23.8 µM | 1.95 | 5.69 |
| COc1ccc(-c2nocc2-c2cc(OC)c(OC)c(OC)c2)cc1 | 0.0239 | 0.13 | 0.0426 µM | > 100 | 0.048 | 0.445 µM | > 86.5 µM | 0.0387 | 0.93 µM | 62.7 | 0.138 µM | > 100 µM | 0.0379 | 4.76 | 0.0664 µM | 69.2 µM | 0.121 | > 100 µM | 15.5 | > 100 |
| CC(=O)Nc1sc2c(c1-c1nc3ccccc3s1)CNC2 | 3.48 | 12.5 | 2.23 µM | 11.1 | 1.94 | 2.44 µM | 11.8 µM | 0.865 | 4.74 µM | 24.4 | 2.38 µM | 15.8 µM | 3.76 | 19.4 | 2.67 µM | 9.71 µM | 2.59 | 21.9 µM | 10.2 | 7.88 |
| Cc1cccc(C[C@H](NC(=O)Nc2ccc(Cl)cc2F)C(=O)N[C@@H]2C(=O)N3C[C@H](OC(=O)CCN(C)C)C[C@H]3C(=O)N3CCCC[C@H]3C(=O)N[C@@H](C)C(=O)N3C[C@H](C)C[C@H]3C(=O)O[C@H]2C)c1 ({NH(4-Cl-2-F-phenyl)-CO}-[Phe(3-Me)][aThr][Hyp](Propanoyl(3-NMe2))[Pip]A[Pro(4R-Me)]; ester 2-C) | 0.432 | 1.65 | 0.3 µM |  | 0.386 | 0.519 µM | 3.17 µM | 0.394 | 2.16 µM | 10.6 | 0.536 µM | 7.24 µM | 0.526 | 2.82 | 0.667 µM | 2.67 µM | 0.976 | 6.25 µM | 1.82 | 1.83 |
| O=S(=O)(NCCCNc1cc(-c2cn(-c3ccccc3)nc2-c2cccc(O)c2)ccn1)c1ccc(Cl)cc1 | 1.64 | 3.2 | 0.437 µM | 2.5 | 1.68 | 1.64 µM | 4.98 µM | 1.84 | 3.16 µM | 8.97 | 1.52 µM | 3.25 µM | 0.471 | 1.7 | 1.91 µM | 3.51 µM | 2.05 | 29.6 µM | 3.32 | 5.01 |
| C=C1C(=O)OC2/C=C(\C)C3OC3/C=C(/C(=O)OC)C(OC(C)=O)C(OC(=O)C(C)(O)C(C)OC(C)=O)C12 (configuration not stated) |  | 4.84 |  | 17.1 |  |  | 11.2 µM |  |  | 4.21 |  | 37.5 µM |  | 2.88 |  | 20.2 µM |  | 42.9 µM | 13.3 | 2.67 |
| C/C(=N\NC(=O)c1ccncc1)c1ccc(O)cc1O | 5.03 | > 100 | 6.62 µM | > 100 | 5 | 11.4 µM | > 100 µM | 4.92 | > 100 µM | > 100 | 3.93 µM | > 100 µM | 8.09 | > 100 | > 100 µM | > 100 µM | 2.56 | > 100 µM | > 100 | > 100 |
| COC(=O)C1C2CCCN2OC1(C)CO (configuration not stated) |  | > 100 |  | > 100 |  |  | > 100 µM |  |  | > 100 |  | > 100 µM |  | > 100 |  | > 100 µM |  | > 100 µM | > 100 | > 100 |
| C[C@@]1(N2C(=O)OC[C@@H]2c2ccccc2)C(=O)N([C@H](CC(=O)N2CCC(N3CCCCC3)CC2)C(=O)NCc2cccc(C(F)(F)F)c2)[C@@H]1/C=C/c1ccccc1 | 1.74 | 3.26 | 2.07 µM | 4.82 | 2 | 4.12 µM | 16.7 µM | 1.85 | 1.8 µM | 3.76 | 2.03 µM | 5.76 µM | 2.31 | 5.7 | 2.13 µM | 4.22 µM | 1.56 | 3.69 µM | 3.86 | 4.24 |
| O=C(O)/C=C\C(=O)Nc1ccc2c(c1)C(=O)c1cc(F)ccc1-2 |  | > 100 |  | > 100 |  |  | > 100 µM |  |  | > 100 |  | > 100 µM |  | > 100 |  | > 100 µM |  | > 100 µM | > 100 | > 100 |
| CC(=O)OCC1OC(n2c(-c3ccccc3)c(C)c(C)c(C#N)c2=S)C(OC(C)=O)C(OC(C)=O)C1OC(C)=O (configuration not stated) |  | > 100 | 24.8 µM and > 100 µM | > 100 |  | 32.9 µM and 16.3 µM | > 50 µM and 54.7 µM |  | 48.6 µM and > 100 µM | > 100 | 14.3 µM and > 100 µM | 40.4 µM and > 100 µM |  | > 100 | 35.5 µM and 14.6 µM | > 50 µM and 41.3 µM |  | 46.9 µM and 77 µM | > 100 | > 100 |
| CC([O-])C(=O)[O-].NCC1CCC1CN.[Pt+4] (configuration not stated) | > 10 | > 10 | > 10 µM | > 10 | > 10 | > 10 µM | > 10 µM | 6.89 | > 10 µM | > 10 | > 10 µM | > 10 µM | > 10 | > 10 | > 10 µM | > 10 µM | > 10 | > 10 µM | > 10 | > 10 |
| O=C1C(Cl)=C(Nc2cccc(O)c2)C(=O)N1c1cccc(Cl)c1Cl | 17.9 | 43.1 | 13.5 µM | 29.6 | 14.8 | 14.4 µM | 34.6 µM | 13.7 | 20.2 µM | 80 | 15.9 µM | 62.9 µM | 18.5 | 58.3 | 15.2 µM | 35.9 µM | 49.6 | > 100 µM | 51.5 | 42.7 |
| O=C(Nc1ccc(Br)cc1F)c1cc(Br)ccc1O | 0.846 | 5.63 | 0.453 µM | > 35.9 | 0.5 | 0.396 µM | 3.62 µM | 0.906 | 3.12 µM | 12.3 | 1.45 µM | 6.36 µM | 3.08 | 9.71 | 0.387 µM | 2.42 µM | 1.03 | 11.7 µM | 7.2 | 8.96 |
| COc1ccc(/C=C/C(=O)c2ccc(Nc3ccnc4cc(Cl)ccc34)cc2)cc1 | 65.6 | > 100 | 4.15 µM | > 54 | > 100 | > 100 µM | > 100 µM | 2.85 | > 100 µM | > 100 | > 100 µM | > 100 µM | 4.2 | > 100 | > 100 µM | > 100 µM | > 100 | > 100 µM | > 100 | > 42.3 |
| CN1CCCCC1CCN1c2ccccc2Sc2ccc(S(C)=O)cc21 (configuration not stated) |  | > 100 |  | > 100 |  |  | > 100 µM |  |  | > 100 |  | > 100 µM |  | > 100 |  | > 100 µM |  | > 100 µM | > 100 | > 100 |
